Columns and labels:
Plk3(h) = molecular target: T1, Plk3(h) (Homo sapiens, UniProt Q9H4B4); test: Kinase screen; assay type: biochemical; details: 0.1% DMSO control = 100%
T1 construct: purchased Millipore (KinaseProfiler service)

CaMKI(h) = molecular target: T2, CaMKI(h) (Homo sapiens, UniProt Q14012); test: Kinase screen; assay type: biochemical; details: 0.1% DMSO control = 100%
T2 construct: purchased Millipore (KinaseProfiler service)

TAK1(h) = molecular target: T3, TAK1(h) (Homo sapiens, UniProt O43318); test: Kinase screen; assay type: biochemical; details: 0.1% DMSO control = 100%
T3 construct: purchased Millipore (KinaseProfiler Service)

[1] = tested on: LiCl-induced activation of canonical Wnt signaling; test: LiCl-induced ST-Luc reporter assay in HEK293 cells; assay type: cell-based; details: Homo sapiens; HEK293, 25 mM LiCl, 24 h; read-out: IC50, antagonism of LiCl-induced activation of canonical Wnt signaling
Protocol: Transfection of HEK293 cells was performed as described in Example 22, but using 0.23 μg NF-κB-Luciferase and 0.02 μg Renilla. […] All treated reporter cells were finally lysed and the firefly luciferase and Renilla activities were measured on a 20/20n Luminometer (Turner BioSystems) as described in the Dual-Glo™ Luciferase Assay System Technical Manual (Promega).

CDK1/cyclinB(h) = molecular target: T4, CDK1/cyclinB(h) (Homo sapiens, UniProt P06493); test: Kinase screen; assay type: biochemical; details: 0.1% DMSO control = 100%
T4 construct: purchased Millipore (KinaseProfiler service)

[2] = tested on: canonical Wnt signaling activated by β-catenin constructs; test: ST-Luc reporter in HEK293 cells co-transfected with β-catenin variants; details: 10 or 25 μM, 24 h
Protocol: These included full-length β-catenin, β-catenin with point mutations at N-terminal phosphorylation sites (dominant active, da-Cat), N-terminal deletion of β-catenin (ΔN-Cat) as another dominant active form, and β-catenin C-terminal transactivation domain fused to LEF-1 (CLEF) functioning as dominant active LEF-1. Plasmid amounts used for transfections were diminished to nanograms per 48-well plate to obtain a pathway induction in the range of 10-20 fold.
Transfection was performed as described in Example 22, but using β-catenin variants co-transfected in the following plasmid combinations:
1) 0.215 μg SuperTOPFlash+0.02 μg Renilla+0.015 μg β-catenin;
2) 0.23 μg SuperTOPFlash+0.02 μg Renilla+0.2 ng da-Cat (dominant active β-catenin (S33, 37, 41 and 45A mutated);
3) 0.23 μg SuperTOPFlash+0.02 μg Renilla+0.2 ng ΔN-Cat (N-terminal deleted β-catenin; and
4) 0.23 μg SuperTOPFlash+0.02 μg Renilla+0.2 ng CLEF (β-catenin transactivation domain fused to LEF-1).

Aurora-A(h) = molecular target: T5, Aurora-A(h) (Homo sapiens, UniProt O14965); test: Kinase screen; assay type: biochemical; details: 0.1% DMSO control = 100%
T5 construct: purchased Millipore (KinaseProfiler service)

SW480 cells [3] = test: BrdU/PI cell cycle analysis; assay type: cell-based; details: 25 μM, 72 h
Protocol: Cell cycle progression was measured by BrdU labeling of cultured cells that were counterstained with propidium iodide (PI).
SW480 cells were seeded and exposed to compounds for 3 days changing medium every day as described in Example 24. After a 30 minute incubation with 10 μM BrdU, the cells were trypsinized and stained with 1:100 diluted mouse anti-BrdU antibody (Roche) and Alexa Fluor®488 goat anti-mouse antibody (A 11001, Invitrogen). Counterstaining was done with 10 μg/mL PI in 200 μg/mL RNase I (both Sigma). Samples were analyzed on the PAS-PPCS flow cytometer and cell sorter (Partec).

TCPTP(h) = molecular target: T6, TCPTP(h) (Homo sapiens, UniProt P17706); test: Phosphatase screen; assay type: biochemical; details: 0.1% DMSO control = 100%
T6 construct: purchased Millipore (KinaseProfiler service)

Lyn(h) = molecular target: T7, Lyn(h) (Homo sapiens, UniProt P07948); test: Kinase screen; assay type: biochemical; details: 0.1% DMSO control = 100%
T7 construct: purchased Millipore (KinaseProfiler service)

SW480 cells [4] = test: MTS cell growth assay (Example 27); assay type: cell-based; details: Homo sapiens, 72 h, read-out: IC50, reduction of proliferation
Protocol: Thus, the effect of compound No. 1 on cell growth was tested in SW480 cell lines using MTS analysis (MTS is the colorimetric substrate 3-(4,5-dimethylthiazol-2-yl)-5-(3-carboxymethoxyphenyl)-2-(4-sulfophenyl)-2H-tetrazolium).
3000 cells were seeded on 96 well plates in quadruplicates for each sample. The following day, cell culture medium was mixed with compound No. 1 in various concentrations or with 0.5% DMSO vehicle (control) and added to the wells.
Eight wells of seeded control cells, defining incubation time 0 (t0), were incubated with 20 μl substrate in 100 μl phenol-free D-MEM (Invitrogen) for 3 hours, as described in the CellTiter 96® AQueous Non-Radioactive Cell Proliferation Assay (MTS) protocol (Promega). The A490 value was recorded.
Samples were measured after 72 hours. The following formula was used to determine the single well relative A490 sample values: ((Sample A490−Average A490 to)×100)/(Average A490 0.5% DMSO control−Average A490 t0).

PKCα(h) = molecular target: T8, PKCα(h) (Homo sapiens, UniProt P17252); test: Kinase screen; assay type: biochemical; details: 0.1% DMSO control = 100%
T8 construct: purchased Millipore (KinaseProfiler service)

CK2α2(h) = molecular target: T9, CK2α2(h) (Homo sapiens, UniProt P19784); test: Kinase screen; assay type: biochemical; details: 0.1% DMSO control = 100%
T9 construct: purchased Millipore (KinaseProfiler service)

CDK6/cyclinD3(h) = molecular target: T10, CDK6/cyclinD3(h) (Homo sapiens, UniProt Q00534); test: Kinase screen; assay type: biochemical; details: 0.1% DMSO control = 100%
T10 construct: purchased Millipore (KinaseProfiler service)

PDGFRβ(h) = molecular target: T11, PDGFRβ(h) (Homo sapiens, UniProt P09619); test: Kinase screen; assay type: biochemical; details: 0.1% DMSO control = 100%
T11 construct: purchased Millipore (KinaseProfiler service)

canonical Wnt signaling = test: IC50 in STF/REN HEK293 cells, 50% Wnt3a-CM; assay type: cell-based; details: Homo sapiens; STF/REN HEK293, 50% Wnt3a-CM, 24 h
How it was run: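 HEK293 cells carrying STF/REN reporters seeded at 80,000/well on poly-L-lysine; after 24 h, exposed 24 h to compound in 50% Wnt3a-conditioned medium. Firefly and Renilla luciferase measured by Dual-Glo; IC50 fitted to a Langmuir binding isotherm.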

cKit(h) = molecular target: T12, cKit(h) (Homo sapiens, UniProt P10721); test: Kinase screen; assay type: biochemical; details: 0.1% DMSO control = 100%
T12 construct: purchased Millipore (KinaseProfiler service)

EphB4(h) = molecular target: T13, EphB4(h) (Homo sapiens, UniProt P54760); test: Kinase screen; assay type: biochemical; details: 0.1% DMSO control = 100%
T13 construct: purchased Millipore (KinaseProfiler service)

EGFR(h) = molecular target: T14, EGFR(h) (Homo sapiens, UniProt P00533); test: Kinase screen; assay type: biochemical; details: 0.1% DMSO control = 100%
T14 construct: purchased Millipore (KinaseProfiler service)

CDK7/cyclinH/MAT1(h) = molecular target: T15, CDK7/cyclinH/MAT1(h) (Homo sapiens, UniProt P50613); test: Kinase screen; assay type: biochemical; details: 0.1% DMSO control = 100%
T15 construct: purchased Millipore (KinaseProfiler service)

PKG1α(h) = molecular target: T16, PKG1α(h) (Homo sapiens, UniProt Q13976); test: Kinase screen; assay type: biochemical; details: 0.1% DMSO control = 100%
T16 construct: purchased Millipore (KinaseProfiler service)

LOK(h) = molecular target: T17, LOK(h) (Homo sapiens, UniProt O94804); test: Kinase screen; assay type: biochemical; details: 0.1% DMSO control = 100%
T17 construct: purchased Millipore (KinaseProfiler service)

Rse(h) = molecular target: T18, Rse(h) (Homo sapiens, UniProt Q06418); test: Kinase screen; assay type: biochemical; details: 0.1% DMSO control = 100%
T18 construct: purchased Millipore (KinaseProfiler service)

PP2A(h) = test: Phosphatase screen; assay type: biochemical, human; details: 10 μM; 0.1% DMSO control = 100%
LMPTP-B(h) = molecular target: T19, LMPTP-B(h) (Homo sapiens, UniProt P24666); test: Phosphatase screen; assay type: biochemical; details: 0.1% DMSO control = 100%
T19 construct: purchased Millipore (KinaseProfiler service)

DRAK1(h) = molecular target: T20, DRAK1(h) (Homo sapiens, UniProt Q9UEE5); test: Kinase screen; assay type: biochemical; details: 0.1% DMSO control = 100%
T20 construct: purchased Millipore (KinaseProfiler service)

T19 sequence (P24666 1-158 isoform P24666-2): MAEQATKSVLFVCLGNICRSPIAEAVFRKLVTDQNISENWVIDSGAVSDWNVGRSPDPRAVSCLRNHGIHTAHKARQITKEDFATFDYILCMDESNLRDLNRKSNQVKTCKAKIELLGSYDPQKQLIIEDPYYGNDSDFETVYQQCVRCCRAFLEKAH
T15 sequence (P50613 whole entry): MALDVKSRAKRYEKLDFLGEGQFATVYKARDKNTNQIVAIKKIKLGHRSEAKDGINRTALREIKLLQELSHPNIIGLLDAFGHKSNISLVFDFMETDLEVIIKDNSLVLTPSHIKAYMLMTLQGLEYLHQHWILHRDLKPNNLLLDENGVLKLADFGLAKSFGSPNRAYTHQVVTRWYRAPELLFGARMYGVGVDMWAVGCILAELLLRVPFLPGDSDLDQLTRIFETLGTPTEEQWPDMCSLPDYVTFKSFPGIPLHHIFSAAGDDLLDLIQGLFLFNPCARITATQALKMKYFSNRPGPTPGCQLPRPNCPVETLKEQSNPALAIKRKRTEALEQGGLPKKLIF
T15 sequence (P51946 whole entry partner): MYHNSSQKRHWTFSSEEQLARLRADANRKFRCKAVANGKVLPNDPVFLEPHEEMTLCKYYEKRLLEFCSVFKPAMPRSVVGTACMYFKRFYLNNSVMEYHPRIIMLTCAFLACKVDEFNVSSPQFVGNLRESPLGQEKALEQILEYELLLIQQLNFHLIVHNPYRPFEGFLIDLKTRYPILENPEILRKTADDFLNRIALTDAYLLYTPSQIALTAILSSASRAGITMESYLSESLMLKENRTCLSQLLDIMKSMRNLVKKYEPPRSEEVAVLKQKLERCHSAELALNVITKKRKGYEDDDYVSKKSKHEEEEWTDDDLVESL
T15 sequence (P51948 whole entry partner): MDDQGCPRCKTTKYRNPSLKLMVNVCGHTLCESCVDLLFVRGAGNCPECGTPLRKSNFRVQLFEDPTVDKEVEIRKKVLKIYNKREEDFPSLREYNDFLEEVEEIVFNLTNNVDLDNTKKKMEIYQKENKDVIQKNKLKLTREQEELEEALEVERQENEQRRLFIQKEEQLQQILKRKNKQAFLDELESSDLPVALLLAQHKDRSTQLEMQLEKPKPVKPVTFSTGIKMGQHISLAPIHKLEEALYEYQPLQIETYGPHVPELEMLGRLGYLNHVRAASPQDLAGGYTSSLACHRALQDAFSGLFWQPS
T18 sequence (Q06418 41-890): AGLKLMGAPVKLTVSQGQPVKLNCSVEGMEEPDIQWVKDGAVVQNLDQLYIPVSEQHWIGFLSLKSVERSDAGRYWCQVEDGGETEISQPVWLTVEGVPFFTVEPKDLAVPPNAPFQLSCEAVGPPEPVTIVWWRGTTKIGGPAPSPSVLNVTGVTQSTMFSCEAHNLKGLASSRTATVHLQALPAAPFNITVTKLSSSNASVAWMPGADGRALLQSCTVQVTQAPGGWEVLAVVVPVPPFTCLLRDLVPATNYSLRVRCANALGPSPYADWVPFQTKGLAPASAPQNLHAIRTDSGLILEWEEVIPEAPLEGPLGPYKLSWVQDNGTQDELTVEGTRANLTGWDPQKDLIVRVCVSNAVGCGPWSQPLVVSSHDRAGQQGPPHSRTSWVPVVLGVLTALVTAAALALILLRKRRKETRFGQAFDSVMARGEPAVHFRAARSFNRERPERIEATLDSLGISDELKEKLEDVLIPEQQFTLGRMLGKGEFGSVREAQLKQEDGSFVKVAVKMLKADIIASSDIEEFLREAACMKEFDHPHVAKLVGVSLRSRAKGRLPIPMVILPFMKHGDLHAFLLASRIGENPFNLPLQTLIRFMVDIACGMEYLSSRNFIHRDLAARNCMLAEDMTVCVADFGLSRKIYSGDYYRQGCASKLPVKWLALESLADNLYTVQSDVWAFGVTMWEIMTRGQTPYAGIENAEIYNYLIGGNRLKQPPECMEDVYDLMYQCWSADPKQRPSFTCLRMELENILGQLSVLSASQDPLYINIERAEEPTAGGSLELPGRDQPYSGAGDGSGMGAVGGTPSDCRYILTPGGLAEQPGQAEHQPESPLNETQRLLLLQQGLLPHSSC
T7 sequence (P07948 whole entry): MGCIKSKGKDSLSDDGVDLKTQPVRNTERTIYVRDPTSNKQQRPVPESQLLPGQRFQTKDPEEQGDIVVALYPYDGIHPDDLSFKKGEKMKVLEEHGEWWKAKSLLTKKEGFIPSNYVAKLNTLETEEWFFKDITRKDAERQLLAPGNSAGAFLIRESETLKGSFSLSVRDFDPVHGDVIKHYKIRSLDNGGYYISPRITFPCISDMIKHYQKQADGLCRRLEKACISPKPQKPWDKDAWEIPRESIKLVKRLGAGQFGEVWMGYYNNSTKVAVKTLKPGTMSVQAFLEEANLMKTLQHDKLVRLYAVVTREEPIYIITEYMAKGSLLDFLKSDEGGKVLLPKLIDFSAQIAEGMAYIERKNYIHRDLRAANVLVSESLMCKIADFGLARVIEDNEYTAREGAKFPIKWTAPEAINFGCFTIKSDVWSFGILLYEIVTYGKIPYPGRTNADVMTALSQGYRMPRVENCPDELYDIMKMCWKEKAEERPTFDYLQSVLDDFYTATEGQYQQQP
T1 sequence (Q9H4B4 whole entry): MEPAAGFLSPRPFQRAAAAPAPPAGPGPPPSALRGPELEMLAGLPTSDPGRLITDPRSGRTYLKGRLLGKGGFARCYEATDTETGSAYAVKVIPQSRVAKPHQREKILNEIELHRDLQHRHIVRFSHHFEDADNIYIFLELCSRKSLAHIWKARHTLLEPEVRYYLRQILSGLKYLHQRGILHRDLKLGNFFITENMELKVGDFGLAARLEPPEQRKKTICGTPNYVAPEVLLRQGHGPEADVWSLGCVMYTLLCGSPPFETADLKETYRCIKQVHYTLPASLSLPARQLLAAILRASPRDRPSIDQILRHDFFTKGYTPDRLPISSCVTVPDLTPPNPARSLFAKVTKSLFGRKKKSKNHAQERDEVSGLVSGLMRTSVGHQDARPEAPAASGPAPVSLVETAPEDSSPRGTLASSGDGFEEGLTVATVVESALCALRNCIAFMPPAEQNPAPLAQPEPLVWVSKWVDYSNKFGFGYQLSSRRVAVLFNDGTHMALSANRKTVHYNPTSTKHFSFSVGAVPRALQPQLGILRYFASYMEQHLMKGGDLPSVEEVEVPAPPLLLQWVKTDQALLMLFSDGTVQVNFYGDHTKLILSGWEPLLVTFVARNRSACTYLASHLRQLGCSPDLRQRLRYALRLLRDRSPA
T14 sequence (P00533 25-1210): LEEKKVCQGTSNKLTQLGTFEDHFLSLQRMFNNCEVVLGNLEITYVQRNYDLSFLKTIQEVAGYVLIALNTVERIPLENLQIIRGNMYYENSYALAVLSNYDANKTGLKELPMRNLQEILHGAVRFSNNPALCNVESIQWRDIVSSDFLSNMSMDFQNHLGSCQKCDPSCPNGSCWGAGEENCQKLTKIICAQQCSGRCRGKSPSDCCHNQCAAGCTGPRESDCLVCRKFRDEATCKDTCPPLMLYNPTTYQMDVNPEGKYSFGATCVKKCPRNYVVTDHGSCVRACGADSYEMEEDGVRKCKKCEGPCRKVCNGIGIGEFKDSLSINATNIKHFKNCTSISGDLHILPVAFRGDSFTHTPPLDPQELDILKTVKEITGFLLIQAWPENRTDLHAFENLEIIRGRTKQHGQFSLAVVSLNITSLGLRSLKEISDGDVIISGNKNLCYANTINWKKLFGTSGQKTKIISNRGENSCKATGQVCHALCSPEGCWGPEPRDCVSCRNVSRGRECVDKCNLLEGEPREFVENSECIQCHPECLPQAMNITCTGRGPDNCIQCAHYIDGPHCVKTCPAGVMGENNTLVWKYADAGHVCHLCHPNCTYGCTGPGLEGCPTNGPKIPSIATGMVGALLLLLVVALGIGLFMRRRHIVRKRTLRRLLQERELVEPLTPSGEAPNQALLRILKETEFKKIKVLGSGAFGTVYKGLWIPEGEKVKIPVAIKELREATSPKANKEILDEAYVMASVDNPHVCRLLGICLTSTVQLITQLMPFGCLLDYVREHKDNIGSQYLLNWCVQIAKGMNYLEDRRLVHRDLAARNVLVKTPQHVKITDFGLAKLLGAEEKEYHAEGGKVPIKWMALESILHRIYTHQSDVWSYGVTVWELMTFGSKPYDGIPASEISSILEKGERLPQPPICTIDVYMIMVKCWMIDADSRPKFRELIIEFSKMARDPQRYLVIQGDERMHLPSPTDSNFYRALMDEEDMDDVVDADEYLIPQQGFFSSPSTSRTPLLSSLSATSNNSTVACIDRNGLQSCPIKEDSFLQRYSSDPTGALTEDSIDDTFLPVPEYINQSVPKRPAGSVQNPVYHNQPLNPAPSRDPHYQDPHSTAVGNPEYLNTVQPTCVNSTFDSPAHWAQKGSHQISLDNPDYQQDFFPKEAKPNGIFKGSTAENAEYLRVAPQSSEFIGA

`COc1ccc(-n2c(SCc3nc(-c4ccc(C)cc4)no3)nnc2-c2ccncc2)cc1` [Compound 1] showed an activity at 10 µM (Plk3(h)) of 104%, an activity at 10 µM (CaMKI(h)) of 97% and an activity at 10 µM (TAK1(h)) of 104%. The IC50 [1] was 420 nM, the activity at 10 µM (CDK1/cyclinB(h)) was 101% and the “activation of canonical Wnt signaling by full-length β-catenin” value [2] was “reduced”. The “activation of the pathway by CLEF” value [2] was “not significantly antagonized”, the “activation of the pathway by da-Cat” value [2] was “not significantly antagonized” and the “activation of the pathway by ΔN-Cat” value [2] was “not significantly antagonized”. For the same molecule, the activity at 10 µM (Aurora-A(h)) was 95%, the “percentage of cells in S phase” value (SW480 cells [3]; DMSO control 28.4%) was 16.2% and the “percentage of G1-phase cells” value (SW480 cells [3]; DMSO control 37.3%) was 46.4%. For the same molecule, the activity at 10 µM (TCPTP(h)) was 100%, the activity at 10 µM (Lyn(h)) was 109% and the IC50 (SW480 cells [4]) was ~11500 nM. It also gave an activity at 10 µM (PKCα(h)) of 105%, an activity at 10 µM (CK2α2(h)) of 104% and an activity at 10 µM (CDK6/cyclinD3(h)) of 94%. For the same molecule, the activity at 10 µM (PDGFRβ(h)) was 129%, the IC50 (canonical Wnt signaling) was 1010 nM and the activity at 10 µM (cKit(h)) was 116%. The activity at 10 µM (EphB4(h)) was 105%, the activity at 10 µM (EGFR(h)) was 108% and the activity at 10 µM (CDK7/cyclinH/MAT1(h)) was 108%. The activity at 10 µM (PKG1α(h)) was 106%, the activity at 10 µM (LOK(h)) was 109% and the activity at 10 µM (Rse(h)) was 108%. For the same molecule, the “Activity (%)” value (PP2A(h)) was 87%, the activity at 10 µM (LMPTP-B(h)) was 100% and the activity at 10 µM (DRAK1(h)) was 116%.
